Usually IC50 stands for the concentration needed to halve the response being measured.

One compound from ChEMBL document CHEMBL1143312, “Design, synthesis, and evaluation in vitro of quinoline-8-carboxamides, a new class of poly(adenosine-diphosphate-ribose)polymerase-1 (PARP-1) inhibitor” (J Med Chem, 2009) can be followed below.

The assay addresses Poly [ADP-ribose] polymerase 1 (Homo sapiens, UniProt P09874). Put plainly: Inhibition of human recombinant PARP1 by Trevigen colorimetric assay.

Sequence of Poly [ADP-ribose] polymerase 1 (P09874 whole entry): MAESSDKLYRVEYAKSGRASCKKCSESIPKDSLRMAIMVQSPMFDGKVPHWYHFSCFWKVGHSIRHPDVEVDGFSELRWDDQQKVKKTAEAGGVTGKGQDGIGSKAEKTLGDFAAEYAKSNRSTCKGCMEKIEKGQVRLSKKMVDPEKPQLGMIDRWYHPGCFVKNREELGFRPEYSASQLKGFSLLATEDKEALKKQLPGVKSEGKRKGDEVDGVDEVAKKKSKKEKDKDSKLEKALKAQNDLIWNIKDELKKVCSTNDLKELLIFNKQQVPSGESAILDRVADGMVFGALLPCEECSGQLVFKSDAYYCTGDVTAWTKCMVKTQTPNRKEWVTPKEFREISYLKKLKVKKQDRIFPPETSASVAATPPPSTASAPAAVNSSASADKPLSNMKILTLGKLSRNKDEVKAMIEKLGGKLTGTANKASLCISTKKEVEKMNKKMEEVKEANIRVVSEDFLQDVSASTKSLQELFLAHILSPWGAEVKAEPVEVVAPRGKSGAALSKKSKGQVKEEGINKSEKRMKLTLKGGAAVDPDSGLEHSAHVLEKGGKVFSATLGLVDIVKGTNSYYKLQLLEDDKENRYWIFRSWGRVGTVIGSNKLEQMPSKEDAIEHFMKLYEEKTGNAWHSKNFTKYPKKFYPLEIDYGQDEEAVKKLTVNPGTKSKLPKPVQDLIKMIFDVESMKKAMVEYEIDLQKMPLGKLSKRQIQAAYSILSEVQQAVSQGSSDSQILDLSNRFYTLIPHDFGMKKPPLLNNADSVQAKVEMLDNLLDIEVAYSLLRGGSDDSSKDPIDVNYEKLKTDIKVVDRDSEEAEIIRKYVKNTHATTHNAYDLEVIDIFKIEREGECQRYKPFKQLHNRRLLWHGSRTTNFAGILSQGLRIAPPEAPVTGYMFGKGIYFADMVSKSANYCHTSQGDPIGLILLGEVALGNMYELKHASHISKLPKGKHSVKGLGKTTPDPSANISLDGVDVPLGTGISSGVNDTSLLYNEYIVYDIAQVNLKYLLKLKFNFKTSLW

`Nc1cccc2c(=O)[nH]ccc12`: the IC50 came to 1.8 µM.
